{
  "source": "paper PMC2843910",
  "about": "(Biochemical pharmacology, 2008)",
  "biological_target": "T1, ABCG2 (Homo sapiens, UniProt Q9UNQ0)",
  "T1 sequence (Q9UNQ0 1-655)": "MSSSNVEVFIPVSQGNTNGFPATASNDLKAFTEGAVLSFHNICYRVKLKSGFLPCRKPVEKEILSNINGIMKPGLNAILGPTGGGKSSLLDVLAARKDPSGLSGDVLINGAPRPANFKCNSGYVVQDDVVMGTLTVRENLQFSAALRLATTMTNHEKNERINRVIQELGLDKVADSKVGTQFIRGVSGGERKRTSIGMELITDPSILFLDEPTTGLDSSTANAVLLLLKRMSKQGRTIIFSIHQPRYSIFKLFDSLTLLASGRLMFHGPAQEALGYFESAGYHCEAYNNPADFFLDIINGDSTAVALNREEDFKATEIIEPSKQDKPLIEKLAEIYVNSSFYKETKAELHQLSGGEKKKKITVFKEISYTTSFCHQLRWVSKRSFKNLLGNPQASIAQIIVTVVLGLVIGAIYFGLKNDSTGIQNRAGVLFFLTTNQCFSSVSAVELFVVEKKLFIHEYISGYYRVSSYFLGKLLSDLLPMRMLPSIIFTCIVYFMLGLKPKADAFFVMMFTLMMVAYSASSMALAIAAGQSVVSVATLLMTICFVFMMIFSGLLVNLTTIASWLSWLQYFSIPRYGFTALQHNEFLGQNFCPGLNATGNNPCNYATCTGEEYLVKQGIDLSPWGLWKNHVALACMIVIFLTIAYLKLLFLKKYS",
  "format": "cell-based",
  "data": [
    {"smiles": "CN(Cc1cnc2nc(N)nc(N)c2n1)c1ccc(C(=O)N[C@@H](CCC(=O)O)C(=O)O)cc1", "note": "[[^3H]-methotrexate]", "values": [
      {"measurement": "ATP-dependent uptake into membrane vesicles (rapid filtration)", "value": "inhibited the rates of both methotrexate and E217βG uptake in the membrane vesicles of ABCG2-482-R5"}
    ]}
  ]
}
